According to US20020111274A1, “1-alkyl-3-[1-(substituted phenyl) benzotriazol-6-yl] uracils” (BASF Aktiengesellschaft, priority 2000, published 2002):

What was measured:
Set-up in all cases: scale not given here
CASOB Sicklepod = experiment: Postemergence herbicidal evaluation, CASOB; type: in vivo, Cassia obtusifolia, L.; settings: postemergence spray, rated about two-three weeks after treatment
In short: (§1)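 For this test, compound in an 80/20 acetone/water vehicle with 1.0% seed oil was sprayed over two-week-old seedlings at about 0.006 to 0.400 kg per hectare. Injury was assessed visually two to three weeks on.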

GLXMAW Soybean, Williams = experiment: Postemergence herbicidal evaluation, GLXMAW; type: in vivo, Glycine max, (L.) Merr. cv Williams; settings: postemergence spray, rated about two-three weeks after treatment
In short: as §1

[1] = test system: CHEAL Lambsquarters, Common; experiment: Postemergence herbicidal evaluation, CHEAL; type: in vivo, Chenopodium album, L.; settings: postemergence spray, rated about two-three weeks after treatment
In short: as §1

ZEAMX Corn, Field = experiment: Preemergence herbicidal evaluation, ZEAMX; type: in vivo, Zea mays, L. (Sammel-Bezeichnung); settings: preemergence
In short: (§2)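 Seeds mixed with potting soil in cups, then sprayed preemergence with aqueous acetone test solution at about 0.013 to 0.800 kg per hectare equivalent. Cups kept under standard greenhouse care; plants rated on a visual scale four to five weeks after treatment.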

SETVI Foxtail, Green = experiment: Postemergence herbicidal evaluation, SETVI; type: in vivo, Setaria viridis, (L.) Beau; settings: postemergence spray, rated about two-three weeks after treatment
In short: as §1

[2] = test system: CHEAL Lambsquarters, Common; experiment: Preemergence herbicidal evaluation, CHEAL; type: in vivo, Chenopodium album, L.; settings: preemergence
In short: as §2

AMBEL Ragweed, Common = experiment: Postemergence herbicidal evaluation, AMBEL; type: in vivo, Ambrosia artemisifolia, L.; settings: postemergence spray, rated about two-three weeks after treatment
In short: as §1

GALAP Galium = experiment: Postemergence herbicidal evaluation, GALAP; type: in vivo, Galium aparine; settings: postemergence spray, rated about two-three weeks after treatment
In short: as §1

ORYSAT Rice, Tebonnet = experiment: Preemergence herbicidal evaluation, ORYSAT; type: in vivo, Oryza sativa, (L.); settings: preemergence
In short: as §2

ABUTH Velvetleaf = experiment: Preemergence herbicidal evaluation, ABUTH; type: in vivo, Abutilon theophrasti, Medic.; settings: preemergence
In short: as §2

ECHOG Barnyardgrass = experiment: Postemergence herbicidal evaluation, ECHOG; type: in vivo, Echinochloa crus-galli, (L.) Beau; settings: postemergence spray, rated about two-three weeks after treatment
In short: as §1

[3] = test system: TRZAWR Wheat, Winter, cv Riband; experiment: Preemergence herbicidal evaluation, TRZAWR; type: in vivo, Triticum aestivum; settings: preemergence
In short: as §2

Cc1ccc(O)cc1-n1nnc2cc(F)c(-n3c(=O)cc(C(F)(F)F)n(C)c3=O)cc21 [Example 32]
4.0: ABUTH herbicidal rating (ABUTH Velvetleaf; rate 0.125 kg/ha)
2.5: Postemergence herbicidal rating GLXMAW (GLXMAW Soybean, Williams; 0.016 kg/ha)
2.0: Postemergence herbicidal rating GLXMAW (GLXMAW Soybean, Williams; 0.008 kg/ha)
3.0: Postemergence herbicidal rating GLXMAW (GLXMAW Soybean, Williams; 0.032 kg/ha) | Postemergence herbicidal rating GLXMAW (GLXMAW Soybean, Williams; 0.062 kg/ha)
0.0: Postemergence herbicidal rating CASOB (CASOB Sicklepod; 0.008 kg/ha) | Postemergence herbicidal rating CASOB (CASOB Sicklepod; 0.016 kg/ha) | Postemergence herbicidal rating CASOB (CASOB Sicklepod; 0.032 kg/ha) | Postemergence herbicidal rating CASOB (CASOB Sicklepod; 0.062 kg/ha) | Postemergence herbicidal rating CHEAL ([1]; 0.008 kg/ha) | Postemergence herbicidal rating CHEAL ([1]; 0.016 kg/ha) | Postemergence herbicidal rating CHEAL ([1]; 0.032 kg/ha) | Postemergence herbicidal rating CHEAL ([1]; 0.062 kg/ha) | ZEAMX herbicidal rating (ZEAMX Corn, Field; rate 0.016 kg/ha) | ZEAMX herbicidal rating (ZEAMX Corn, Field; rate 0.032 kg/ha) | ZEAMX herbicidal rating (ZEAMX Corn, Field; rate 0.062 kg/ha) | Postemergence herbicidal rating SETVI (SETVI Foxtail, Green; 0.008 kg/ha) | Postemergence herbicidal rating SETVI (SETVI Foxtail, Green; 0.016 kg/ha) | Postemergence herbicidal rating SETVI (SETVI Foxtail, Green; 0.032 kg/ha) | Postemergence herbicidal rating SETVI (SETVI Foxtail, Green; 0.062 kg/ha) | CHEAL herbicidal rating ([2]; rate 0.016 kg/ha) | CHEAL herbicidal rating ([2]; rate 0.032 kg/ha) | CHEAL herbicidal rating ([2]; rate 0.062 kg/ha) | Postemergence herbicidal rating AMBEL (AMBEL Ragweed, Common; 0.008 kg/ha) | Postemergence herbicidal rating AMBEL (AMBEL Ragweed, Common; 0.016 kg/ha) | Postemergence herbicidal rating AMBEL (AMBEL Ragweed, Common; 0.032 kg/ha) | Postemergence herbicidal rating AMBEL (AMBEL Ragweed, Common; 0.062 kg/ha) | Postemergence herbicidal rating GALAP (GALAP Galium; 0.008 kg/ha) | Postemergence herbicidal rating GALAP (GALAP Galium; 0.016 kg/ha) | Postemergence herbicidal rating GALAP (GALAP Galium; 0.032 kg/ha) | Postemergence herbicidal rating GALAP (GALAP Galium; 0.062 kg/ha) | ORYSAT herbicidal rating (ORYSAT Rice, Tebonnet; rate 0.016 kg/ha) | ORYSAT herbicidal rating (ORYSAT Rice, Tebonnet; rate 0.032 kg/ha) | ORYSAT herbicidal rating (ORYSAT Rice, Tebonnet; rate 0.062 kg/ha) | ORYSAT herbicidal rating (ORYSAT Rice, Tebonnet; rate 0.125 kg/ha) | ABUTH herbicidal rating (ABUTH Velvetleaf; rate 0.016 kg/ha) | ABUTH herbicidal rating (ABUTH Velvetleaf; rate 0.032 kg/ha) | ABUTH herbicidal rating (ABUTH Velvetleaf; rate 0.062 kg/ha) | Postemergence herbicidal rating ECHCG (ECHOG Barnyardgrass; 0.008 kg/ha) | Postemergence herbicidal rating ECHCG (ECHOG Barnyardgrass; 0.016 kg/ha) | Postemergence herbicidal rating ECHCG (ECHOG Barnyardgrass; 0.032 kg/ha) | Postemergence herbicidal rating ECHCG (ECHOG Barnyardgrass; 0.062 kg/ha) | TRZAWR herbicidal rating ([3]; rate 0.016 kg/ha) | TRZAWR herbicidal rating ([3]; rate 0.032 kg/ha) | TRZAWR herbicidal rating ([3]; rate 0.062 kg/ha) | TRZAWR herbicidal rating ([3]; rate 0.125 kg/ha)
1.0: ZEAMX herbicidal rating (ZEAMX Corn, Field; rate 0.125 kg/ha)
6.0: CHEAL herbicidal rating ([2]; rate 0.125 kg/ha)
